Molecules are shown by their SMILES. Structures can show the parent of a compound that is named as a salt.

One assay relates to CHIKV replicon. The assay is described as follows: microbe, parasite or virus in culture. The assay is classed as cell-based, Chikungunya virus (CHIKV).

Turning to `C[C@]12CC[C@H](O)C[C@H]1CC[C@@H]1[C@@H]2CC[C@]2(C)[C@@H](C3=CC(=O)OC3)[C@@H](O)C[C@]12O` [Gitoxigenin], the “CHIKV replicon % left” value in the assay on CHIKV replicon is on record as 81.4%. The “SFV replication % left (surviving fraction, remaining percentage of SFV replication)” value with SFV-Rluc is on record as 102.7%.

As to `COc1c2ccoc2cc2oc(=O)ccc12` [Bergapten, 5-Methoxypsoralen], the “CHIKV replicon % left” value with CHIKV replicon came to 100.5%. Further, in the assay on SFV-Rluc, the “SFV replication % left (surviving fraction, remaining percentage of SFV replication)” value came to 46.8%.

For `O=S(=O)(O)NC1CCCCC1` [Cyclamic acid], in the assay with CHIKV replicon, the “CHIKV replicon % left” value came out at 107.5%. For the same molecule, the “SFV replication % left (surviving fraction, remaining percentage of SFV replication)” value with SFV-Rluc stood at 74.9%.

With `O=c1cc(O)c2ccccc2o1` [4-Hydroxycoumarin], in the assay on CHIKV replicon, the “CHIKV replicon % left” value is given as 95.4%. Further, in the assay with SFV-Rluc, the “SFV replication % left (surviving fraction, remaining percentage of SFV replication)” value came to 100.2%.

On to `Nc1ccc(S(=O)(=O)Nc2ncccn2)cc1` [Sulfadiazine], for which the “CHIKV replicon % left” value with CHIKV replicon is reported as 81.2%. The “SFV replication % left (surviving fraction, remaining percentage of SFV replication)” value with SFV-Rluc is recorded as 107.7%.

Take `O=C(O)c1cc(O)ccc1O` [2,5-Dihydroxybenzoic acid]: the “CHIKV replicon % left” value in the assay with CHIKV replicon was 83.7%. In addition, the “SFV replication % left (surviving fraction, remaining percentage of SFV replication)” value with SFV-Rluc is 127.8%.

`CC(CN1c2ccccc2Sc2ccccc21)N(C)C` (centres unmarked) [Promethazine hydrochloride]: in the assay with CHIKV replicon, the “CHIKV replicon % left” value was found to be 39.2%. Also, in the assay on SFV-Rluc, the “SFV replication % left (surviving fraction, remaining percentage of SFV replication)” value turned out to be 48.8%.

Turning to `CC(Cc1ccc2c(c1)OCO2)NCC(O)c1ccc(O)c(O)c1` (centres unmarked) [Protokylol hydrochloride], in the assay on CHIKV replicon, the “CHIKV replicon % left” value was determined as 85.4%. Also, the “SFV replication % left (surviving fraction, remaining percentage of SFV replication)” value in the assay with SFV-Rluc is 128.4%.

`CCCCOc1cc(C(=O)NCCN(CC)CC)c2ccccc2n1` [Dibucaine hydrochloride]: the “CHIKV replicon % left” value in the assay with CHIKV replicon was 100.5%. For the same molecule, the “SFV replication % left (surviving fraction, remaining percentage of SFV replication)” value in the assay on SFV-Rluc is on record as 77.8%.

Regarding `CCOC(=O)c1ccc(N)cc1` [Benzocaine], the “CHIKV replicon % left” value in the assay on CHIKV replicon amounted to 85.4%. The “SFV replication % left (surviving fraction, remaining percentage of SFV replication)” value in the assay on SFV-Rluc worked out at 43.4%.

As for `O=C1CN(/N=C/c2ccc([N+](=O)[O-])o2)C(=O)N1` [Nitrofurantoin], in the assay on CHIKV replicon, the “CHIKV replicon % left” value came to 60.9%. The “SFV replication % left (surviving fraction, remaining percentage of SFV replication)” value in the assay with SFV-Rluc is reported as 58.9%.

In the case of `CC(C)NCC(O)c1ccc(O)c(O)c1.CC(C)NCC(O)c1ccc(O)c(O)c1.O=S(=O)(O)O` (racemic) [(+/-)-Isoproterenol hemisulfate salt], in the assay on CHIKV replicon, the “CHIKV replicon % left” value came out at 105.1%. The “SFV replication % left (surviving fraction, remaining percentage of SFV replication)” value in the assay on SFV-Rluc worked out at 110.9%.

On to `NC(=O)c1ccccc1O` [Salicylamide], for which the “CHIKV replicon % left” value in the assay with CHIKV replicon is 38.2%. Further, in the assay on SFV-Rluc, the “SFV replication % left (surviving fraction, remaining percentage of SFV replication)” value worked out at 126.2%.

Consider `COc1ccc(OC)c(C(O)C(C)N)c1` (centres unmarked) [Methoxamine hydrochloride], for which the “CHIKV replicon % left” value in the assay on CHIKV replicon is 48.2%. In the assay with SFV-Rluc, the “SFV replication % left (surviving fraction, remaining percentage of SFV replication)” value was 98.4%.

As to `CCCCCCCCCCCCCCCC[N+](C)(C)C` [Cetrimonium bromide], in the assay with CHIKV replicon, the “CHIKV replicon % left” value amounted to 80.5%. Also, in the assay on SFV-Rluc, the “SFV replication % left (surviving fraction, remaining percentage of SFV replication)” value is given as 75.0%.

In the case of `CCCCC1C(=O)N(c2ccccc2)N(c2ccccc2)C1=O` [Phenylbutazone], in the assay on CHIKV replicon, the “CHIKV replicon % left” value is on record as 100.5%. Moreover, the “SFV replication % left (surviving fraction, remaining percentage of SFV replication)” value with SFV-Rluc worked out at 96.7%.

On to `O=C(O)/C=C/c1ccc(O)c(O)c1` [Caffeic acid], for which the “CHIKV replicon % left” value in the assay on CHIKV replicon is on record as 85.2%. The “SFV replication % left (surviving fraction, remaining percentage of SFV replication)” value in the assay with SFV-Rluc was 98.7%.

In the case of `CCN(CC)CCNC(=O)c1ccc(N)cc1` [Procainamide hydrochloride], the “CHIKV replicon % left” value with CHIKV replicon turned out to be 100.4%. For the same molecule, the “SFV replication % left (surviving fraction, remaining percentage of SFV replication)” value in the assay with SFV-Rluc came to 89.0%.

For the molecule `C[C@@]12CCC[C@H]1[C@@H]1CC[C@H]3CCCC[C@]3(C)[C@H]1CC2` [4-a-Androstane], in the assay with CHIKV replicon, the “CHIKV replicon % left” value was 85.5%. Besides, in the assay on SFV-Rluc, the “SFV replication % left (surviving fraction, remaining percentage of SFV replication)” value was 53.0%.
